Assays:
Format in all cases: functional, cell-based
[1] = tested on: SW480; assay: Cytotoxicity against human SW480 cells after 72 hrs by MTT assay; settings: SW480, 72 h
[2] = tested on: MCF7; assay: Cytotoxicity against human MCF7 cells after 72 hrs by MTT assay; settings: MCF7, 72 h
[3] = tested on: HeLa; assay: Cytotoxicity against human HeLa cells after 72 hrs by MTT assay
[4] = Cytotoxicity against human MDA-MB-435S cells after 72 hrs by MTT assay
[5] = Cytotoxicity against human LM7 cells after 72 hrs by MTT assay; settings: LM7, 72 h
[6] = tested on: HEp-2; assay: Cytotoxicity against human Hep2 cells after 72 hrs by MTT assay; settings: HEp-2, 72 h

| SMILES | IC50 [1] [µM] | IC50 [2] [µM] | IC50 [3] [µM] | IC50 [4] [µM] | IC50 [5] [µM] | IC50 [6] [µM] |
| --- | --- | --- | --- | --- | --- | --- |
| Nc1nc(SCc2coc3ccccc3c2=O)n[nH]1 | 21.4 | > 25 | > 25 | 8.3 | 16.9 | 21.3 |
| Cc1cc(C)n2nc(SCc3cc(=O)c4cc(Cl)ccc4o3)nc2n1 | > 25 | > 25 | > 25 | > 25 | > 25 | > 25 |
| O=c1c(CSc2nc3ccccc3o2)coc2ccccc12 | 3.2 | 4.8 | > 25 | 1.4 | 5.3 | 2.7 |
| Cc1cc(C)nc(SCc2cc(=O)c3ccccc3o2)n1 | > 25 | > 25 | > 25 | > 25 | > 25 | > 25 |
| Cc1cc(O)cc2oc(=O)cc(CSc3nc4ccccc4s3)c12 | > 25 | > 25 | > 25 | > 25 | > 25 | > 25 |
| Cc1ccc2oc(CSc3nc4nc(C)cc(C)n4n3)cc(=O)c2c1 | > 25 | > 25 | > 25 | > 25 | > 25 | > 25 |
| Cc1cc(C)nc(SCc2coc3ccccc3c2=O)n1 | > 25 | > 25 | > 25 | > 25 | > 25 | 55.1 |
| Cc1cc(C)n2nc(SCc3cc(=O)c4ccccc4o3)nc2n1 | > 25 | > 25 | > 25 | > 25 | > 25 | > 25 |
| Nc1nnc(SCc2coc3ccccc3c2=O)s1 | > 25 | > 25 | > 25 | 0.95 | 0.73 | 1.5 |
| Cc1cc(C)n2nc(SCc3nnc(SCc4cc(=O)c5ccccc5o4)n3-c3ccccc3)nc2n1 | > 25 | > 25 | > 25 | > 25 | > 25 | > 25 |
| Cc1cc(C)n2nc(SCc3nnc(SCc4cc(=O)c5ccccc5o4)n3N)nc2n1 | > 25 | > 25 | > 25 | > 25 | > 25 | > 25 |
| COC(=O)Nc1ccc2c(CSc3nnc(CSc4nc(C)cc(C)n4)s3)cc(=O)oc2c1 | 3.7 | 9.4 | 15.9 | 4.6 | 2.3 | 2.1 |
| Cc1nnc(SCc2cc(=O)c3cc(Cl)ccc3o2)s1 | > 25 | > 25 | > 25 | > 25 | > 25 | > 25 |
| Cc1ccc2oc(CSc3nc(C)cc(C)n3)cc(=O)c2c1 | > 25 | > 25 | > 25 | > 25 | > 25 | > 25 |
| Cc1cc(C)nc(SCn2cnc3c(Cl)cccc3c2=O)n1 | > 25 | > 25 | > 25 | > 25 | > 25 | > 25 |
| Cc1ccc2oc(CSc3nnc(C)s3)cc(=O)c2c1 | > 25 | > 25 | > 25 | > 25 | > 25 | > 25 |
| O=c1c2ccccc2ncn1CSc1nc2ccccc2s1 | > 25 | > 25 | > 25 | > 25 | > 25 | > 25 |
| O=c1cc(CSc2nc3ccccc3o2)c2ccc(O)c(O)c2o1 | > 25 | > 25 | > 25 | > 25 | > 25 | > 25 |
| Nc1nnc(SCc2cc(=O)c3cc(Cl)ccc3o2)s1 | > 25 | > 25 | > 25 | > 25 | > 25 | > 25 |
| O=c1c2ccccc2ncn1CSc1nc2ccccc2o1 | > 25 | > 25 | > 25 | > 25 | > 25 | > 25 |
| Cc1ccc2oc(CSc3nnc(C)o3)cc(=O)c2c1 | > 25 | > 25 | > 25 | > 25 | > 25 | > 25 |
| O=c1c2cccc(Cl)c2ncn1CSc1nc2ccccc2s1 | > 25 | > 25 | > 25 | > 25 | > 25 | > 25 |
| Cc1cc(O)cc2oc(=O)cc(CSc3nc4ccccc4[nH]3)c12 | > 25 | > 25 | > 25 | > 25 | > 25 | > 25 |
| O=c1c2cccc(Cl)c2ncn1CSc1nc2ccccc2o1 | > 25 | > 25 | > 25 | > 25 | > 25 | > 25 |
| Cc1cc(C)n2nc(SCc3nnc(SCn4cnc5c(Cl)cccc5c4=O)s3)nc2n1 | > 25 | > 25 | > 25 | > 25 | > 25 | > 25 |

| SMILES | IC50 [1] [µM] | IC50 [2] [µM] | IC50 [3] [µM] | IC50 [4] [µM] | IC50 [5] [µM] | IC50 [6] [µM] |
| --- | --- | --- | --- | --- | --- | --- |
| Cc1cc(C)n2nc(SCc3nnc(SCc4cc(=O)oc5c4ccc4ccccc45)s3)nc2n1 | > 25 | > 25 | > 25 | > 25 | > 25 | > 25 |
| Cc1ccc2oc(CSc3nc4ccccc4s3)cc(=O)c2c1 | > 25 | > 25 | > 25 | > 25 | > 25 | > 25 |
| Cc1nnc(SCc2cc(=O)c3ccccc3o2)o1 | > 25 | > 25 | > 25 | > 25 | > 25 | > 25 |
| Nc1nnc(SCn2cnc3ccccc3c2=O)s1 | > 25 | > 25 | > 25 | > 25 | > 25 | > 25 |
| Cc1cc(C)n2nc(SCc3nnc(SCc4cc(=O)c5ccccc5o4)o3)nc2n1 | > 25 | > 25 | > 25 | > 25 | > 25 | > 25 |
| Cc1cc(C)n2nc(SCc3nnc(SCc4coc5ccccc5c4=O)n3-c3ccccc3)nc2n1 | 12.4 | > 25 | > 25 | 2.9 | 16.6 | 22.1 |
| Cc1cc(C)n2nc(SCc3nnc(SCc4coc5ccccc5c4=O)n3N)nc2n1 | 3.6 | > 25 | > 25 | 3 | 1.9 | 7.1 |
| O=c1cc(SCn2cnc3c(Cl)cccc3c2=O)sc2ccccc12 | > 25 | > 25 | > 25 | > 25 | > 25 | > 25 |
| Cc1nnc(Sc2c(C)oc3ccccc3c2=O)o1 | > 50 | > 50 | > 50 | > 50 | > 50 | > 50 |
| O=c1cc(CSc2nc3ccccc3s2)oc2ccccc12 | > 25 | > 25 | > 25 | > 25 | > 25 | > 25 |
| Cc1nnc(SCc2coc3ccc(Cl)cc3c2=O)s1 | 3.2 | 13.4 | 9.7 | 2.2 | 7.6 | 4.2 |
| Cc1cc(C)n2nc(SCn3cnc4ccccc4c3=O)nc2n1 | > 25 | > 25 | > 25 | > 25 | > 25 | > 25 |
| Cc1ccc2oc(CSc3nnc(N)s3)cc(=O)c2c1 | > 25 | > 25 | > 25 | > 25 | > 25 | > 25 |
| Cc1nnc(SCc2coc3ccc(Cl)cc3c2=O)o1 | 3.5 | 5 | 3.2 | 3.3 | 8.7 | 6.4 |
| O=c1cc(CSc2nc3ccccc3s2)oc2ccc(Cl)cc12 | > 25 | > 25 | > 25 | > 25 | > 25 | > 25 |
| Cc1nnc(SCc2cc(=O)c3cc(Cl)ccc3o2)o1 | > 25 | > 25 | > 25 | > 25 | > 25 | > 25 |
| O=c1cc(SCn2cnc3ccccc3c2=O)sc2ccccc12 | 8.5 | 5.3 | 6.3 | 4.1 | 17 | 5.9 |
| Cc1nnc(SCc2cc(=O)c3ccccc3o2)s1 | > 25 | > 25 | > 25 | > 25 | > 25 | > 25 |
| Cc1cc(C)n2nc(SCn3cnc4c(Cl)cccc4c3=O)nc2n1 | > 25 | > 25 | > 25 | > 25 | > 25 | > 25 |
| Cc1cc(C)nc(SCc2cc(=O)c3cc(Cl)ccc3o2)n1 | > 25 | > 25 | > 25 | > 25 | > 25 | > 25 |
| COC(=O)Nc1ccc2c(CSc3nc(C)cc(C)n3)cc(=O)oc2c1 | 13.2 | 9.9 | 14.3 | 19 | 8.2 | 8 |
| Nc1nnc(SCc2cc(=O)c3ccccc3o2)s1 | > 25 | > 25 | > 25 | > 25 | > 25 | > 25 |
| Cc1cc(O)cc2oc(=O)cc(CSc3nc4ccccc4o3)c12 | > 25 | > 25 | > 25 | > 25 | > 25 | > 25 |
| O=c1[nH]cc(F)c(=O)[nH]1 [FLUOROURACIL] | – | 3.6 | 3.4 | – | 18.6 | – |

Source: ChEMBL document CHEMBL2417443, “Efficient synthesis and antiproliferative activity of novel thioether-substituted flavonoids” (Eur J Med Chem, 2013)
